Results on one compound are retold here after patent publication US8940757B2, “Prasugrel in micronized, crystalline form and pharmaceutical composition thereof” (ratiopharm GmbH, priority 2010, dated 2015).

One data set can be described thus: Solubility in water. Format: physicochemical. As to conditions: free base. How it is done:
Prasugrel is administered orally as platelet aggregation inhibitor. The problem here is that Prasugrel is a sparingly soluble active ingredient.

The next data set in a line: pH-dependent degradation. The note with it: pH values of <3, after 2 hours. The class given is physicochemical. How it is done: In addition, Prasugrel also has a strongly pH-dependent degradation. With pH values of <3 a degradation of more than 1% is observed already after 2 hours. This limits the potential excipients in the preparation of pharmaceutical formulations.

Converted amounts (≈) assume the structure as drawn.

With `CC(=O)Oc1cc2c(s1)CCN(C(C(=O)C1CC1)c1ccccc1F)C2` (stereo not drawn) [Prasugrel, 2-acetoxy-5-(α-cyclopropylcarbonyl-2-fluorobenzyl)-4,5,6,7-tetrahydrothieno[3,2-c]pyridine], the concentration in solution in the data set “Solubility in water” (solubility) was 57 µg/mL (≈ 153 µM). The degradation result in “pH-dependent degradation” is reported as “more than 1%”.

One may read the solubility as how much of the substance goes into solution per volume. The low end stands for a poorly soluble substance, the high end for a readily soluble substance.
